Data as given in ChEMBL document CHEMBL1150871, “New Briarane Stecholide Diterpenes from the Indonesian Gorgonian Briareum sp” (J Nat Prod, 1998).
≈ marks a conversion by molar mass, not a printed value.

Experiments:
Assay type in all cases: functional, cell-based
[1] = tested on: SK-MEL-28; test: Cytotoxicity against human SK-MEL-28 cells
[2] = tested on: HT-29; test: Cytotoxicity against human HT-29 cells
[3] = tested on: A549; test: Cytotoxicity against human A549 cells
[4] = tested on: P388; test: Cytotoxicity against mouse P388 cells

| Compound | IC50 [1] [µg/mL] | IC50 [2] [µg/mL] | IC50 [3] [µg/mL] | IC50 [4] [µg/mL] | EC50 [4] [µg/mL] |
| --- | --- | --- | --- | --- | --- |
| CC(=O)O[C@@H]1[C@H]2[C@@]3(C)O[C@H]3[C@@H](O)[C@H](OC(C)=O)[C@]2(C)[C@@H](OC(C)=O)[C@H](OC(C)=O)C/C(C)=C\[C@@H]2OC(=O)[C@]3(C)O[C@@]213 [STECHOLIDE L] | 5 (≈ 8.61 µM) | 5 (≈ 8.61 µM) | 2.5 (≈ 4.31 µM) | 10 (≈ 17.2 µM) |  |
| CC(=O)O[C@H]1CC/C(C)=C\[C@@H]2OC(=O)[C@]3(C)O[C@@]23[C@@H](OC(C)=O)[C@H]2[C@@]3(C)O[C@H]3C[C@H](OC(C)=O)[C@]12C | > 10 | > 10 | > 10 |  | 1.59 (≈ 3.14 µM) |
| CCCC(=O)O[C@@H]1C/C(C)=C\[C@@H]2OC(=O)[C@]3(C)O[C@]23[C@H](OC(C)=O)[C@H]2C(C)=C[C@@H](O)[C@H](OC(C)=O)[C@]2(C)[C@H]1OC(C)=O [STECHOLIDE I] | > 10 | > 10 | > 10 | > 10 |  |
| CC(=O)O[C@H]1C=C[C@@](C)(O)[C@@H]2[C@H](OC(C)=O)[C@@]34O[C@@]3(C)C(=O)O[C@H]4/C=C(/C)CC[C@H](OC(C)=O)[C@@]12C | > 10 | > 10 | > 10 | > 10 |  |
| CCCC(=O)O[C@H]1C[C@@H](OC(C)=O)/C(C)=C\[C@@H]2OC(=O)[C@]3(C)O[C@@]23[C@@H](OC(C)=O)[C@H]2[C@@]3(C)O[C@H]3C[C@H](OC(C)=O)[C@]12C [STECHOLIDE A ACETATE] | > 10 | > 10 | > 10 | > 10 |  |
| CC(=O)O[C@@H]1[C@@H]2O[C@]2(C)[C@@H]2[C@@H](OC(C)=O)[C@]34O[C@@]3(C)C(=O)O[C@H]4/C=C(/C)C[C@@H](OC(C)=O)[C@H](OC(C)=O)[C@@]2(C)[C@H]1OC(C)=O [STECHOLIDE K] | > 10 | > 10 | > 10 | > 10 |  |
| CC(=O)O[C@@H]1[C@H]2C(C)=C[C@@H](O)[C@H](OC(C)=O)[C@]2(C)[C@@H](OC(C)=O)[C@H](OC(C)=O)C/C(C)=C\[C@@H]2OC(=O)[C@]3(C)O[C@@]213 [STECHOLIDE J] | > 10 | > 10 | > 10 | > 10 |  |
| CC(=O)O[C@H]1C[C@@H]2O[C@]2(C)[C@@H]2[C@H](OC(C)=O)[C@@]34O[C@@]3(C)C(=O)O[C@H]4/C=C(/C)[C@H](OC(C)=O)C[C@H](OC(C)=O)[C@]12C [STECHOLIDE C ACETATE] | > 10 | > 10 | > 10 | > 10 |  |
| CC(=O)O[C@H]1C/C(C)=C\[C@@H]2OC(=O)[C@]3(C)O[C@]23[C@@H](OC(C)=O)[C@H]2C(C)=CC[C@H](OC(C)=O)[C@]2(C)[C@H]1OC(C)=O | > 10 | > 10 | > 10 | > 10 |  |
